# Assay results published in patent US5908868A, “Retinol derivatives useful for enhancing immune response” (priority 1995, dated 1999).
# Entries after “also recorded” stand apart in the source; their conditions may differ.
# B1: IFN-gamma: mouse recombinant IFN-gamma (protein, UniProt P01580 23-155, looked up)
# Interferon gamma: HGTVIESLESLNNYFNSSGIDVEEKSLFLDIWRNWQKDGDMKILQSQIISFYLRLFEVLKDNQAISNNISVIESHLITTFFSNSKAKKDAFMSIAKFEVNNPQVQRQAFNELIRVVHQLLPESSLRKRKRSRC
# B2: IL-4: murine rIL-4 (protein, UniProt P07750 21-140, looked up)
# Interleukin-4: HIHGCDKNHLREIIGILNEVTGEGTPCTEMDVPNVLTATKNTTESELVCRASKVLRIFYLKHGKTPCLKKNSSVLMELQRLFRAFRCLDSSISCTMNESKSTSLKDFLESLKSIMQMDYS
# B3: IL-1: Human recombinant IL-1-α (protein, UniProt P01583 113-271, looked up)
# Interleukin-1 alpha: SAPFSFLSNVKYNFMRIIKYEFILNDALNQSIIRANDQYLTAAALHNLDEAVKFDMGAYKSSKDDAKITVILRISKTQLYVTAQDEDQPVLLKEMPEIPKTITGSETNLLFFWETHGTKNYFTSVAHPNLFIATKQDYWVCLAGGPPSITDFQILENQA
# Tests used:
# B lymphocytes [1] = assay: B cell growth/survival; format: cell-based; conditions: synthetic isomers
# T cells = assay: T cell activation/proliferation; format: cell-based, murine; conditions: for activity in T cell activation relative to natural 13,14-DHR: synthetic isomers; for substitution for retinol in T cell activation: with mitogen/anti-CD3
# Experimental: (§1) They were seeded into 96-well flat-bottom plates at varying cellular densities in a final volume of 100 μl. In control experiments, cells were cultured in medium containing 10% FCS or 3% human serum and 5×10^-5 M 2 ME. […] Cultures were carried out in duplicate. Plates were incubated at 37° C. in a humidified 5% CO2 atmosphere. Cellular proliferation was determined by [^3 H] thymidine uptake (0.5 uCi/well; New England Nuclear, Boston, Mass.) after the incubation times indicated for each experiment with a 4 hour labeling pulse. Cells were harvested onto glass filter and [^3 H]TdR incorporation was determined by liquid scintillation counting. The data presented are the means of duplicate or six replicate cultures. The restriction to duplicate measurements was necessary to conserve scarce 14HRR. […] Each experiment was repeated at least twice.
# thymocytes [2] = assay: Growth-stimulating effect of retinol on anti-CD3 activated thymocytes in the presence of interleukins; format: cell-based, BALB/c mouse; conditions: for substitution for retinol by lymphokines/cytokines: anti-CD3-activated thymocytes; for substitution for retinol by lymphokines/cytokines / CPM anti-CD3, no Retinol: no retinol; for CPM anti-CD3, no Retinol: 3 days
# Experimental: as §1, with “Cells were cultured in serum-free medium, referred to as ITLB, containing RPMI 1640 supplemented with 8×10^-7 M insulin (5 μg/ml), 7×10^-8 M transferrin (5 μg/ml), 2×10^-6 M linoleic acid, 2×10^-6 M delipidated BSA (0.12 mg/ml), 2 mM L-glutamine, 1 mM sodium pyruvate and antibiotics. They” for “They”, “ME. T cells and thymocytes were activated with immobilized, purified anti-mab CD3e or by the addition of Con A in the presence or absence of different concentrations of retinoids. Unless indicated otherwise, retinoids were replenished every 12 hours to maintain a reasonably constant concentration of these labile compounds in culture.” for “ME.”
# Proliferation of activated thymocytes in response to interleukins in presence and absence of retinol. Purified thymocytes (5×10^5 cells/well) were activated with immobilized anti-CD3 antibody in serum-free medium in the presence or absence of interleukins and retinol (3×10^-6 M). Proliferation was assayed after three days by tritiated thymidine incorporation.
# thymocytes [3] = assay: as above; format: cell-based, BALB/c mouse; conditions: 3 days
# thymocytes [4] = assay: Proliferation of anti-CD3e activated thymocytes in serum-free medium; format: cell-based, BALB/c mouse
# Experimental: FIG. 14A: Purified BALB/c thymocytes were activated with immobilized anti-CD3e antibody and cultivated for four days in ITLB medium with or without retinol (3×10^-6 M), 14HRR (6×10^-7 M) (fresh 14HRR was added every 12 hours), human serum (3%) or FCS (10%) at the cellular densities shown. Proliferation was assayed by tritiated thymidine incorporation into cellular DNA. The SDs were below 20%.
# FIG. 14B: BALB/c thymocytes (10^6 /ml) were added to microtiter plates coated with titrated amounts of anti-CD3e antibody with […] retinol or without, as indicated. Proliferation was measured in hexaduplicate wells on day 3 by ^3 H thymidine incorporation assay.
# FIG. 14C: BALB/c thymocytes (3×10^6 /ml) were activated with anti-CD3e mAb as FIG. 1A. The total number of viable cells was determined by counting trypan blue-excluding cells, and those of blast cells by counting viable large cells in six replicate wells. Because of the relatively low cell density required in the culture (see FIG. 14A), the numbers reported for blast cells are best estimates.
# Purified thymocytes (5×10^5 cells/well) were stimulated by TCR crosslinking with immobilized anti-CD3e antibody (FIG. 15A) or 0.4 μg/ml Con A (FIG. 15B) in serum-free ITLB medium. The indicated amounts of retinoids were added either once at the beginning of the experiment (marked as "1x") or every 12 hours thereafter (marked as "6x"). DNA synthesis was measured after 72 hours by tritiated thymidine uptake as described.
# Purified thymocytes (10^5 cells/well) were activated with anti-CD3 antibody in ITLB medium with or without retinol (3×10^-6 M), 14HRR (6×10^-7, added every 12 hours or human serum (3%)). DNA synthesis was measured daily by a 4 hour pulse of tritiated thymidine. SDs were ≤12%.
# Thymocytes (5×10^4 /well) were activated by immobilized anti-CD3 mAb in medium ITLB. Retinol (2×10^-6 M) was added at initiation of culture, or delayed by 12 hours and 24 hours, respectively, or omitted altogether. ^3 H thymidine pulses of 4 hours were used to measure DNA synthesis of hexaduplicate wells. (SDs were 20% or less.)
# Thymuses of 3 to 6-week-old BALB/c mice were teased in serum-free RPMI medium supplemented with 1% BSA, 10^-6 M linoleic acid and antibiotics. Depletion of accessory cells was achieved by two cycles of complement-dependent lysis with a mixture of anti-IA^d (5 μg/ml) and anti-Itd (1:500 diluted ascites fluid). Briefly, cells were incubated on ice for 30 minutes with Ia antibodies, spun down, resuspended in 1:40 diluted rabbit complement, and incubated at 37° C. for 45 minutes. Incubations and two subsequent washes were carried out with RPMI medium containing 1% BSA. Cell viability was evaluated by trypan blue dye exclusion. To determine the extent of depletion of accessory cells, samples were stained with FITC-conjugated anti-Fc receptor antibody and analyzed by flow cytometry on a FACScan instrument (Becton Dickinson). No FcR-bearing cells were detected by this procedure.
# Cells were cultured in serum-free medium, referred to as ITLB, containing RPMI 1640 supplemented with 8×10^-7 M insulin (5 μg/ml), 7×10^-8 M transferrin (5 μg/ml), 2×10^-6 M linoleic acid, 2×10^-6 M delipidated BSA (0.12 mg/ml), 2 mM L-glutamine, 1 mM sodium pyruvate and antibiotics. They were seeded into 96-well flat-bottom plates at varying cellular densities in a final volume of 100 μl. In control experiments, cells were cultured in medium containing 10% FCS or 3% human serum and 5×10^-5 M 2 ME. T cells and thymocytes were activated with immobilized, purified anti-mab CD3e or by the addition of Con A in the presence or absence of different concentrations of retinoids. Unless indicated otherwise, retinoids were replenished every 12 hours to maintain a reasonably constant concentration of these labile compounds in culture. […]
# [5] = tested on: lymphoblastoid cells (LCL); conditions: serum-free medium; cited from earlier work
# B lymphocytes [6] = conditions: previous analyses with B lymphocytes (33); cited from earlier work
Molecule,"activity in supporting B cell growth relative to natural 13,14-DHR (B lymphocytes [1])","activity in T cell activation relative to natural 13,14-DHR (T cells)",substitution for retinol by lymphokines/cytokines (thymocytes [2]),"CPM anti-CD3, no Retinol (thymocytes [2])","CPM anti-CD3, 10^-6 M Retinol (thymocytes [3])",substitution for retinol in T cell activation (T cells),other results
"CC1=C(/C=C/C(C)=C/C=C/[C@@](C)(O)[C@H](O)CO)C(C)(C)CCC1 [all-trans (13R, 14R)-DHR]",same activity,same activity,–,–,–,–,–
IL-6: hrIL-6 purchased from Boehringer Mannheim,–,–,None and none,"1,005 ± 815 CPM","130,590 ± 25,803 CPM",–,–
"CC1=C(/C=C/C(C)=C\C=C\[C@](C)(O)[C@H](O)CO)C(C)(C)CCC1 [9-cis-(13S, 14R)-DHR]",same activity,same activity,–,–,–,–,–
"CC1=C(/C=C/C(C)=C\C=C\[C@@](C)(O)[C@H](O)CO)C(C)(C)CCC1 [9-cis-(13R, 14R)-DHR]",same activity,same activity,–,–,–,–,–
CC1=C(/C=C/C(C)=C/C=C/C(C)=C\CO)C(C)(C)CCC1 [13-cis-retinol],–,–,–,–,–,can substitute for retinol,effectiveness relative to all-trans retinol (thymocytes [4]): equally effective as all-trans retinol
TNF-alpha,–,–,none,464 ± 95 CPM,"122,905 ± 11,577 CPM",cannot be satisfied,substitution for retinol by lymphokines/cytokines (thymocytes [2]; listed as TNF-α): does not
"CC1=C(/C=C/C(C)=C/C=C/[C@](C)(O)[C@H](O)CO)C(C)(C)CCC1 [all-trans (13S, 14R)-DHR]",same activity,same activity,–,–,–,–,–
CC1=C(/C=C/C(C)=C/C=C/C(C)=C/C=O)C(C)(C)CCC1 [all-trans retinal],–,–,–,–,–,can substitute for retinol,support of growth of LCL [5]: support the growth of LCL; effectiveness relative to all-trans retinol (thymocytes [4]): equally effective as all-trans retinol; concentration at which activity was demonstrated (B lymphocytes [6]): 200 nM
B1,–,–,can circumvent the retinol requirement and initiate durable proliferation in the absence of retinol or 14HRR,"81,876 ± 11,866 CPM","220,359 ± 27,726 CPM",can substitute for retinol,substitution for retinol by lymphokines/cytokines (thymocytes [2]; listed as interferon-gamma): can sustain thymocyte proliferation in the absence of retinol; also recorded: quite efficient in anti-CD3-mediated activation in the absence of retinol; synergy with retinol (thymocytes [2]): strong additive effects; synergy with retinol (thymocytes [2]; listed as Interferon-gamma): clear additive effect with retinol
B2,–,–,None and none,991 ± 105 CPM,"115,849 ± 20,630 CPM",–,–
B3,–,–,None and none,959 ± 30 CPM,"118,924 ± 3,051 CPM",–,–
